In patent EP0827486B1, “STABILIZED ALKALI OR ALKALINE EARTH METAL HYPOBROMITE AND PROCESS FOR ITS PRODUCTION” (NALCO CHEMICAL COMPANY, priority 1996, dated 1997):

Assays:
[1] = Bromate formation in stored solutions (ion chromatography); format: physicochemical; settings: STORED FOR EIGHT MONTHS in the dark at room temperature; pH 14
Method: Hypohalite ions are known to disproportionate into halate and halide under alkaline conditions. Halate ions are undesirable degradants being suspect carcinogens and are under consideration for governmental regulation. The reaction of NaBr with NaOCI can yield significant amounts of bromate in elevated pH environments. […] Stabilized and unstabilized sodium hypobromite solutions were prepared as described in Example One. These solutions were stored in the dark at room temperature during the course of the study. Eight month old samples of stabilized and unstabilized NaOBr, both maintained at pH 14, a condition suitable for bromate formation, were assayed for bromate. A Dionex 4000 series gradient ion chromatography system equipped with AG9-SC/AS9-SC columns and a conductivity detector was used to measure the bromate concentration in the samples. The chromatograph was operated according to a method currently under investigation by the EPA for the analysis of bromate in ozonated drinking water. Purified water from an Interlake Water Systems deionization system was used for the preparation of all reagents and standard solutions to prevent contamination.

[2] = From the text: AOX is a generic class of compounds which includes all organic molecules containing halogen. Limits for AOX discharge from cooling water systems have already been established in some European countries. To simulate AOX formation during stabilized and unstabilized sodium hypobromite action in cooling water, a mixed bacterial culture typically found in cooling water was cultivated in L-broth overnight and the cells harvested by centrifugation. The cell pellet was washed with synthetic cooling water (90 ppm calcium, 50 ppm magnesium, 110 ppm "M" alkalinity, pH 8.0 -8.2) twice to remove the remaining organic medium. Cells were then resuspended into an equal volume of cooling water. A capped dark bottle served as the reactor. Synthetic cooling water was added to the bottle followed by the washed bacterial stock yielding approximately 10^7 cells/ml. Stabilized NaOBr or unstabilized NaOBr was dosed into this bacterial suspension at a final concentration of 1, 2, 3, or 4 ppm total halogen (as chlorine). Headspace in the bottle was minimized to avoid the evaporative loss of halogenated organics and the solution stirred for 24 hours to simulate a typical cooling system. Immediately before AOX analysis, the sample was acidified to pH 2.0 with concentrated nitric acid. A Mitsubishi TOX-10 Analyzer was used according to US EPA Method 9020 to measure the AOX concentration in the samples. […]
Pseudomonas aeruginosa = assay: Antibacterial activity of stored hypohalite solutions in cooling water; format: cell-based; settings: volume initially required for one ppm free halogen
Method: Freshly prepared solutions of stabilized and unstabilized sodium hypobromite were diluted then added to cooling water in order to achieve a one ppm free halogen residual (as chlorine). Sodium hypochlorite was stabilized in the same fashion as described for NaOBr in Example One with the exception that NaBr was directly replaced with distilled water. Stabilized and unstabilized sodium hypochlorite were diluted then added to cooling water at a final concentration of one ppm free halogen residual (as chlorine). The volumes of all solutions needed to achieve a one ppm free halogen residual (as chlorine) was recorded. Following 6 and 21 days of dark storage, identical dilutions of stabilized and unstabilized sodium hypohalite solutions were prepared and the volume originally required for a one ppm free halogen residual (as chlorine) was added to cooling water containing approximately 10^6 Pseudomonas aeruginosa cells / mL. Aliquots were extracted at 10 and 30 minutes into cooling water dilution blanks containing a halogen neutralizer (0.05 percent Na2S2O3) then enumerated on tryptone glucose extract agar. Stabilized NaOBr retained its antibacterial activity after storage while the unstabilized form lost its efficacy against Pseudomonas aeruginosa (see Table III below). The results were even more dramatic as the storage period increased. This effect was likely due to the disproportionation of the unstable hypobromite ion into the non-biocidal species bromide and bromate. […]

[3] = Volatility: halogen vapors from concentrated solutions in a beaker; format: physicochemical; settings: concentrated solution in a beaker
Method: Concentrated solutions of either NaOCI, NaOBr, or stabilized NaOBr were added to a beaker. […] No odors were noticed from the stabilized NaOBr. This is an improvement over existing products by minimizing halogen odors in product storage areas.

[4] = Storage stability: loss of available halogen; format: physicochemical
Method: Sodium hypochlorite solution was diluted in demand-free water. This diluted solution was titrated by the DPD-FAS method. The available chlorine level present in the original solution was determined to be 15 percent. 42.4 grams of the neat NaOCl solution were added to 20.5 grams of a 45 percent NaBr solution. This reaction forms unstabilized NaOBr. The stabilization solution was formulated with 9.6 grams of sulfamic acid, 14 grams of water, and 13.2 grams of 50 percent sodium hydroxide. The stabilization solution is then added with stirring to the NaOBr. The order of addition is critical in this process which differs from the Goodenough et al. reference. For instance, if the stabilizer was added to NaOCl prior to NaBr introduction, the bromide would not be oxidized to hypobromite. […] The stabilization procedure described here improved on the prior art as the decline of active ingredient was only 1 percent after 84 days (see Table I above). An unstabilized NaOBr solution prepared in an similar process by replacing sulfamic acid with distilled water lost 94 percent available halogen during the same period.

[5] = Bromate analysis of cooling water dosed with dilute solutions; format: physicochemical; settings: cooling water (pH 8.3); total available halogen 1, 2, 3, and 4 ppm (as Cl2)
Method: As noted above, the pH of these solutions was high which favors bromate formation. However, NaOCl, which contains significant amounts of NaOH, is typically diluted with system water prior to the introduction of the bromide species in most industrial applications. The pH of this diluted system would be lower than the neat NaOCI / NaBr formulation described above theoretically minimizing bromate formation. The available chlorine in a NaOCI sample diluted (1:100) with distilled water was titrated by the DPD-FAS method. A solution of 45 percent sodium bromide was added to the dilute NaOCI at a molar ratio of 1 Cl2 : 1 Br^- forming NaOBr. This reaction proceeded for thirty minutes. Then, appropriate volumes of this dilute NaOBr solution were added to cooling water (pH 8.3) giving total available halogen levels of 1, 2, 3, and 4 ppm (as Cl2) as determined by the DPD-FAS method. Similarly, a dilution of stabilized sodium hypobromite (1:100) was made in distilled water. Dilute stabilized NaOBr was added to cooling water (pH 8.3) giving total available halogen levels of 1, 2, 3, and 4 ppm (as Cl2) as determined by the DPD-FAS method. Bromate analysis then proceeded in the manner described above. Bromate was not detected in any of the cooling water samples dosed with either stabilized or unstabilized dilute NaOBr at typical use concentrations.

[6] = 6 DAYS OF STORAGE, CONTACT TIME 10 MINUTES
[7] = 6 DAYS OF STORAGE, CONTACT TIME 30 MINUTES
[8] = 21 DAYS OF STORAGE, CONTACT TIME 10 MINUTES
[9] = 21 DAYS OF STORAGE, CONTACT TIME 30 MINUTES

| SMILES | PERCENT BROMATE [1] [%] | linear-fit equation AOX (ppb) = factor X Dose (ppm) [2] | % BACTERIA KILLED (Pseudomonas aeruginosa; [6]) [%] | % BACTERIA KILLED (Pseudomonas aeruginosa; [7]) [%] | % BACTERIA KILLED (Pseudomonas aeruginosa; [8]) [%] | % BACTERIA KILLED (Pseudomonas aeruginosa; [9]) [%] | Halogen vapors / odors [3] | % LOSS OF AVAILABLE HALOGEN ([4]; After 14 days) [%] | % LOSS OF AVAILABLE HALOGEN ([4]; After 21 days) [%] | % LOSS OF AVAILABLE HALOGEN ([4]; After 34 days) [%] | % LOSS OF AVAILABLE HALOGEN ([4]; After 84 days) [%] | % LOSS OF AVAILABLE HALOGEN ([4]; After 84 days, listed as unstabilized NaOBr) [%] | Bromate [5] |
| --- | --- | --- | --- | --- | --- | --- | --- | --- | --- | --- | --- | --- | --- |
| [Na+].[O-]Br [Unstabilized Sodium Hypobromite, sodium hypobromite] | 2.700 | 53.9 | 99.8 | 99.7 | 0.4 | 6.1 | Halogen vapors were detected | 74 | 79 | 84 | 93 | 94 | not detected |
| [Na+].[O-]Cl [unstabilized NaOCl, sodium hypochlorite] | – | – | 100 | 100 | 100 | 100 | Halogen vapors were detected | – | – | – | – | – | – |
